Test results from patent publication US10035780B2, “Quinazoline scaffold based compounds, pharmaceutical compositions and methods of use thereof” (TECHNION RESEARCH & DEVELOPMENT FOUNDATION LTD., priority 2014, dated 2018).
“Also recorded” adds a separate entry of the source.

How the values were obtained:
U118MG cells = assay: Protection against cell death induced by glutamate in U118MG cell culture; assay type: cell-based, human; conditions: for Protection against glutamate-induced cell death: cell culture, grade in words; for lethal effects of compound at high concentration: 100 μM compound alone; for protection against cell death induced by glutamate: U118MG cells, 35 mM glutamate, compound 1-100 μM
Experimental: (§1) Cell cultures of various human glial type cell lines (T98G, U87MG, A172, U118MG), as well as human neuronal type cell lines SH-SY 5Y and Be(2)-C were used to test the new compounds. In addition, the rat glioma cell line C6 was used. PC12 cells originating from rats were used as another cell line displaying neuronal characteristics. The applicants also have produced, by genetic manipulation, a modified rat C6 glial cell strain and a modified human U118MG glial type cell strain, both under-expressing the TSPO, which allows to study TSPO specific effects, including of the compounds of the invention, which can be done according to methods described previously (Weisinger et al. Biochemistry. 2004; 43:12315-21; Levin et al. 2005; Zeno et al., 2009).
The protective capabilities of the compounds of the invention and involvement of the TSPO were tested in cell culture, using cell lines of glial and neuronal type, cultured and testing according to standard methods (Kugler et al. 2008; Zeno et al. 2009; Dadon-Nachum et al. Stem Cell Rev. 2011; 7:664-71). Furthermore, primary cell cultures are also used (Banker, G. et al. Culturing Nerve Cells, 2nd Edition, The MIT Press (1998). Treatments included: (1) exposure to glutamate (35 mM), Abeta(1-42), NH4Cl, CoCl2, and nitric oxide (NO) donors, in order to mimic particular aspects of neurodegeneration; (2) treatment with the novel compounds and with traditional TSPO ligands as comparative treatment; and (3) TSPO knockdown by genetic manipulation.
Techniques and parameters assayed are summarized here: Total protein levels (Bradford. Anal Biochem. 1976; 72:248-54); TSPO ligand binding assays (Kugler et al. 2008; Levin et al. 2005; Danovich et al. Eur Neuropsychopharmacol. 2008; 18:24-33) cell death, including apoptosis and necrosis and related molecular biological processes (Soustiel et al. Neuropathol Appl Neurobiol. 2008; 34:412-23; Soustiel et al. Exp Neurol. 2008; 214:201-8; Zeno et al. 2009); mitochondrial transmembrane potential collapse (Chelli et al. Biochem Pharmacol. 2004; 68:125-34; Kugler et al. 2008; Zeno et al., 2009; Shargorodsky et al. Apoptosis. 2012; 17:647-65), reactive oxygen species (ROS) generation as a measure of oxidative stress (Veenman et al. 2008; Zeno et al. 2009); TSPO knockdown (Levin et al. 2005; Zeno et al. 2009); expression levels of mitochondrial TSPO and associated proteins (Veenman et al. 2002; Levin et al. 2005; Veenman et al. 2008); gene expression with RT-PCR and microarray analysis (Bode et al. 2012; Veenman et al. 2012). Parameters of inflammation, immune response, migration, and the cell cycle are also tested. All these approaches can also be applied for quality control of the compounds.
The compounds of the invention protect against cell death induced by glutamate in cell culture of U118MG cells of astrocytic origin (FIGS. 1, 2, 3 and 8) or SH SY 6Y cells of neuronal origin (FIG. 4). […] In the control group, 35 mM of glutamate killed ˜60% of the cells.
The experimental setup is explained using FIG. 8B as an example: • 1. Control: Cell death levels are taken as 0% • 2. Glu: Cell death levels induced by glutamate are over 50% • 3. […] Glu+Cpd 5: When Cpd 5 is given as a treatment to counteract cell death induced by glutamate, increasing concentrations of Cpd 5 reduce cell death levels from over 50% to less than 5%.

SH SY 6Y cells = assay: Protection of SH SY 6Y neuronal cells against lethal effects of glutamate; assay type: cell-based, human
Experimental: as §1
The protective capabilities of the compounds of the invention and involvement of the TSPO were tested in cell culture, using cell lines of glial and neuronal type, cultured and testing according to standard methods (Kugler et al. 2008; Zeno et al. 2009; Dadon-Nachum et al. Stem Cell Rev. 2011; 7:664-71). […]

TSPO = TSPO (Homo sapiens (Human), UniProt P30536); assay type: binding; conditions: displacement of [3H]PK 11195 from TSPO
Experimental: Briefly, the assay utilizes radioactive standard ligand [^3H] PK 11195 (1-(2-chlorophenyl)-N-methyl-N-(1-methyl-propyl)-3 isoquinolinecarboxamide), and measures the ability of the compounds of the invention to displace standard ligand in binding to TSPO. Total radioactive binding was determined by measuring the radioactivity of the radioactive ligand-receptor complex, obtained in the reaction of radioactive standard with the TSPO. Radioactive standard and the examined compound were added to the TSPO and after some incubation time the radioactivity of the resulting ligand-receptor complexes was measured with the help of a […]. This radioactivity indicates the binding of the radioactive standard to TSPO. […] This can be expressed as the half maximal inhibitory concentration (IC50), which is a measure of the effectiveness of a compound in inhibiting biological or biochemical function, in this case inhibiting binding of standard radioactive ligand binding to the TSPO. A derivative of the IC50 is the Ki, which is the calculated binding affinity of the novel compound to the TSPO.
Binding to TSPO was evaluated using a [^3H]PK 11195 radio-assay, as described above.

R6-2 mice [1] = assay: Incidence of tremor in R6-2 mice; assay type: in vivo, mouse
Text: (§2) Apart from the behavioral experiments, mice were observed daily, and the day of death was noted. Behavioral experiments included distance covered in an open field apparatus, and tremor measurements.
To assay incidence of tremor in R6-2 mice of the experiments for this invention, the StartleMonitor of Kinder Scientific (Poway, Calif.), with specific software to assay and present force pressure changes in newtons, was used.

R6-2 mice [2] = assay: Lifespan of R6-2 mice, transgenic model for Huntington Disease; assay type: in vivo, mouse; conditions: for effect on lifespan: daily s.c. injections 5 days a week from week 5, vs DMSO and saline
Text: For the assays described herein systemic injections of kainic in rats were applied and also contusion (Veenman et al. 2002; Soustiel et al. Neuropathol Appl Neurobiol. 2008; Soustiel et al. Exp Neurol. 2008). These models present very well defined cell death in the brain. Cell death in the brain is the major pathological characteristic of progressing neurodegeneration common to brain diseases. As the compounds of the present invention are designed to prevent cell death in the brain as a consequence of disease and progressing brain damage after injury, including behavioral impairments, animal models displaying cell death in the brain are the models of choice for displaying the protective capabilities of the compounds of the invention. For these reasons the R6-2 model for Huntington Disease was chosen to test the effectiveness of Compound 1 and to compare the effectiveness of Compound 1 with those of the compound of U.S. Pat. No. 8,541,428 (Cpd A) and with the classical TSPO ligand PK 11195, as well as other compounds disclosed herein. Compounds 5 and 6 were also tested in the same R6-2 model.
R6-2 is a transgenic mouse model for Huntington Disease. Huntington Disease in humans is a hereditary neurodegenerative disease affecting motor performance and finally leading to death of the patients having the disease. R6-2 mice (˜120 CAG repeats B6CBA-Tg(HDexon1)62 Gpb/3J) mice were used for the experiments described below. For this purpose, mice obtained from the Jackson Laboratory (ME) were bred. In particular: males genotype: Hemizygous for Tg(HDexon1)62 Gpb, and females from the wildtype background strain B6CBAF1/J were bred according to the protocol of Jackson Laboratory. The male heterozygote offspring (R6-2 mice) were used for determining life span and motor activity, with and without drug treatment. Drug treatment consisted of daily (5 continuous days a week) subcutaneous injections of mice with 20 μl of: saline (sham control), vehicle DMSO (vehicle control), classic TSPO ligand PK 11195 (15 mg/kg), prior art Compound A (15 mg/kg), Compound 1 (15 mg/kg), and compound 1 (7.5 mg/kg). Drug treatment started on week 5 after birth. Quantities were used according to previous studies regarding TSPO ligands.
as §2
R6-2 mice were used as previously described in Example 5. In one experiment, treatment consisted of daily (5 continuous days per week) subcutaneous injections of mice with 20 μl of vehicle DMSO (control, n=10) and Compound 6 (7.5 mg/kg, n=12). In a separate experiment, compound 5 (7.5 mg/kg, n=5) was tested, compared to DMSO control (n=5).

TSPO, sequence (P30536 whole entry): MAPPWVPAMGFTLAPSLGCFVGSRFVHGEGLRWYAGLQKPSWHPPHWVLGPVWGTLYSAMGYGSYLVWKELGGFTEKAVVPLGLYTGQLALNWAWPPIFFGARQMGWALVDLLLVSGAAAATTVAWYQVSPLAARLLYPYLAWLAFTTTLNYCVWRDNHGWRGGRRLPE

Compound	Protection against glutamate-induced cell death (U118MG cells)	protection against lethal effects of glutamate (SH SY 6Y cells)	Ki (TSPO)	lethal effects of compound at high concentration (U118MG cells; halogenated vs unhalogenated analog)	lethal effects of compound at high concentration (U118MG cells; halogenated vs unhalogenated analog, listed as Cpd 6)	protection against cell death induced by glutamate (U118MG cells)	protection against cell death induced by glutamate (U118MG cells; listed as compound 6)	cell death effect of glutamate at high compound concentration (U118MG cells; glutamate plus 100 μM compound, halogenated vs unhalogenated analog)	cells killed by glutamate (U118MG cells; glutamate plus 100 μM compound, glutamate alone kills 50-60%)	incidence of tremor activity (R6-2 mice [1])	week until which 50% of the mice were still alive (R6-2 mice [2]; 7.5 mg/kg s.c., 50% of DMSO mice died before 10th week)	effect on lifespan (R6-2 mice [2])	effect on lifespan (R6-2 mice [2]; listed as compound 6)
CCN(CC)C(=O)Oc1nc(-c2ccc(Br)cc2)nc2ccccc12 [Compound 4, 2-(4-bromophenyl)quinazolin-4-yl diethylcarbamate]	Good	protects neuronal cells	~45 nM	–	–	–	–	–	–	–	–	–	–
CCN(C)C(=O)Oc1nc(-c2ccccc2Cl)nc2ccccc12 [Compound 6, 2-(2-chlorophenyl)quinazolin-4-yl ethyl(methyl)carbamate]	Excellent	–	~60 nM	reduces lethal effects	reduces cell death effects	protect better and more consistently; also recorded: improves protection	superior over compound 1	reduces cell death effect of glutamate in cultures even further	5%	tremor reducing effects; also recorded: reduced the incidence of tremor activity	12 week	increase the average lifespan; also recorded: extends the life span	robust lifespan enhancing
